Columns and labels:
Assay in all cases: relative viability (nuclei count vs DMSO), 5 days (fraction); higher = more cells survive
[1] = compound: O=C(NCCCNc1nc(Nc2cccc(NC(=O)N3CCCC3)c2)ncc1I)c1cccs1 [BX 795]
How it was run: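 A plate was accepted only when its control CV was below 25% and the cells had doubled at least once. Viability is defined from nuclear counts as treated wells divided by vehicle wells, with the median taken across plates. That median covers lung cancer cell lines grown in 1536-well plates, dosed by pinning at five √10-spaced library-drug concentrations, and counted in MetaXpress from 4× Hoechst images after 5 days.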

[2] = compound: O=C(NCCCNc1nc(Nc2cccc(NC(=O)N3CCCC3)c2)ncc1I)c1cccs1 [BX 795] + C[C@]1(O)C[C@@H](c2nc(-c3ccc4ccc(-c5ccccc5)nc4c3)c3c(N)nccn32)C1 [Linsitinib] (partner 1 µM)
How it was run: (§1)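 Medians of duplicate plates are given as relative viability. That measure is the nuclei count in treated wells divided by the count in vehicle wells. Counts were taken on 4× images of lung cancer cell lines in 1536-well plates, 5 days after pin-tool dosing the day after seeding with one drug alone or a fixed anchor-drug dose plus five library-drug doses (not always all listed) in √10 steps.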

[3] = compound: O=C(NCCCNc1nc(Nc2cccc(NC(=O)N3CCCC3)c2)ncc1I)c1cccs1 [BX 795] + Cc1nc(Nc2ncc(C(=O)Nc3c(C)cccc3Cl)s2)cc(N2CCN(CCO)CC2)n1 [Dasatinib] (partner 0.075 µM)
How it was run: as §1

[4] = compound: O=C(NCCCNc1nc(Nc2cccc(NC(=O)N3CCCC3)c2)ncc1I)c1cccs1 [BX 795] + N=C(N)NC(=N)NCCc1ccccc1 [Phenformin] (partner 250 µM)
How it was run: as §1

[5] = compound: O=C(NCCCNc1nc(Nc2cccc(NC(=O)N3CCCC3)c2)ncc1I)c1cccs1 [BX 795] + NC(=O)Nc1cc(-c2cccc(F)c2)sc1C(=O)N[C@H]1CCCNC1 [AZD7762] (partner 0.2 µM)
How it was run: as §1

Row | Cell Line | relative viability ([1]; 0.04 µM) | relative viability ([1]; 0.1265 µM) | relative viability ([1]; 0.4 µM) | relative viability ([1]; 1.265 µM) | relative viability ([2]; first compound 0.04 µM) | relative viability ([2]; first compound 0.1265 µM) | relative viability ([2]; first compound 0.4 µM) | relative viability ([2]; first compound 1.265 µM) | relative viability ([3]; first compound 0.04 µM) | relative viability ([3]; first compound 0.1265 µM) | relative viability ([3]; first compound 0.4 µM) | relative viability ([3]; first compound 1.265 µM) | relative viability ([4]; first compound 0.04 µM) | relative viability ([4]; first compound 0.1265 µM) | relative viability ([4]; first compound 0.4 µM) | relative viability ([4]; first compound 1.265 µM) | relative viability ([5]; first compound 0.04 µM) | relative viability ([5]; first compound 0.1265 µM) | relative viability ([5]; first compound 0.4 µM) | relative viability ([5]; first compound 1.265 µM)
1 | NCI-H2126 | 1.01 | 1.02 | 1.1 | 0.983 | 0.714 | 0.656 | 0.757 | 0.701 | 0.649 | 0.658 | 0.507 | 0.599 | 0.534 | 0.542 | 0.605 | 0.498 | 1.02 | 1.01 | 1.01 | 0.983
2 | NCI-H1734 | 1.06 | 1.02 | 0.908 | 0.668 | 0.915 | 0.968 | 0.861 | 0.761 | 0.446 | 0.465 | 0.474 | 0.398 | 0.419 | 0.375 | 0.402 | 0.307 | 0.54 | 0.562 | 0.51 | 0.444
3 | HARA | 0.921 | 0.81 | 0.975 | 0.947 | 0.896 | 0.966 | 0.916 | 0.795 | 0.241 | 0.268 | 0.26 | 0.276 | 0.446 | 0.424 | 0.506 | 0.447 | 0.149 | 0.301 | 0.286 | 0.387
4 | 201T | 0.983 | 0.996 | 1.07 | 1.04 | 1.06 | 1.08 | 1.04 | 1.03 | 0.627 | 0.617 | 0.629 | 0.635 | 0.47 | 0.421 | 0.464 | 0.421 | 0.6 | 0.603 | 0.597 | 0.628
5 | NCI-H2085 | 1.01 | 1.03 | 0.981 | 0.97 | 0.883 | 0.961 | 1.04 | 0.737 | 0.25 | 0.214 | 0.221 | 0.249 | 0.73 | 0.83 | 0.699 | 0.606 | 0.895 | 0.932 | 0.947 | 0.957
6 | LK-2 | 0.998 | 1.02 | 0.863 | 0.929 | 0.518 | 0.396 | 0.484 | 0.393 | 0.35 | 0.201 | 0.291 | 0.304 | 0.501 | 0.485 | 0.503 | 0.444 | 0.367 | 0.33 | 0.445 | 0.3
7 | NCI-H1437 | 0.978 | 1.05 | 1.03 | 1.01 | 1.05 | 1.07 | 0.992 | 0.769 | 0.308 | 0.467 | 0.396 | 0.379 | 0.279 | 0.336 | 0.328 | 0.257 | 1.14 | 1.14 | 0.888 | 1.18
8 | NCI-H460 | 0.995 | 1.08 | 0.991 | 0.954 | 0.708 | 1.01 | 0.605 | 0.281 | 0.491 | 0.474 | 0.385 | 0.385 | 0.5 | 0.609 | 0.415 | 0.372 | 0.587 | 0.616 | 0.664 | 0.767

From the supplement of paper PMC10307832
